Reference: patent US5763483A, “Carbocyclic compounds” (priority 1996, dated 1998)

Each molecule was assayed against neuraminidase (assay: Enzyme Inhibition (in vitro neuraminidase screen)).
Format: biochemical
Source text: Compositions of the invention are screened for inhibitory activity against neuraminidase by any of the conventional techniques for evaluating enzyme activity. Within the context of the invention, typically compositions are first screened for inhibition of neuraminidase in vitro and compositions showing inhibitory activity are then screened for activity in vivo. Compositions having in vitro Ki (inhibitory constants) of less then about 5×10^-6 M, typically less than about 1×10^-7 M and preferably less than about 5×10^-8 M are preferred for in vivo use.
Useful in vitro screens have been described in detail and will not be elaborated here. However, Itzstein, M. von et al.; "Nature", 363(6428):418-423 (1993), in particular page 420, column 2, full paragraph 3, to page 421, column 2, first partial paragraph, describes a suitable in vitro assay of Potier, M.; et al.; "Analyt. Biochem.", 94:287-296 (1979), as modified by Chong, A. K. J.; et al.; "Biochem. Biophys. Acta", 1077:65-71 (1991); and Colman, P. M.; et al.; International Publication No. WO 92/06691 (Int. App. No. PCT/AU90/00501, publication date Apr. 30, 1992) page 34, line 13, to page 35, line 16, describes another useful in vitro screen.
Enzyme Inhibition: Using the methods of screening in vitro activity described above, the following activities were observed (+10-100 μm, ++1-10 μm, +++<1.0 μm): […]
For CC(=O)N[C@@H]1[C@@H](N)CC(C(=O)O)=C[C@H]1OCC(O)CO (stereo partly drawn) [Compound 8], the IC50 was 1000 to 10000 nM. In the case of CC(=O)N[C@H]1[C@H](O)C=C(C(=O)O)C[C@@H]1NC(=N)N [Compound 94], the IC50 is reported as less than 1000 nM. Work on COCO[C@@H]1C=C(C(=O)O)C[C@H](N)[C@H]1NC(C)=O [Compound 114] yielded an IC50 of 1000 to 10000 nM.
